Values after ≈ are worked out from the molar mass of the structure shown. Where two headings read alike, the source gives them in different places.
Legend:
[1] = background; cited from earlier work
[2] = test system: B-16 mouse melanoma cells; experiment: Inhibitory effect against melanin biosynthesis in B-16 mouse melanoma cell; format: cell-based; conditions: 72 h, read-out: IC50 (inhibition of melanin biosynthesis)
Experimental: Inhibitory Effect Against Melanin Biosynthesis in B-16 Mouse Melanoma Cell
B-16 mouse melanoma cells were cultured to a density of 10^6 cells/dish in culture media compounds in various concentrations were respectively added thereto and then cultured for 3 days. The cells were separated from the culture dish by the treatment with trypsin and then centrifuged to extract melanin(wherein a pellet was extracted using 2N perchloric acid). 1 ml of 1N aqueous sodium hydroxide solution was added to the melanin extracted and the resulting mixture was heated to dissolve melanrin. The absorbance at 400 nm was measured by a spectrophotometer and the amount of the melanin produced was represented by the absorbance per unit cell numbers(10^6 cell).

tyrosinase = experiment: Inhibitory activity against tyrosinase (mushroom enzyme, L-tyrosine substrate, absorbance at 475 nm); format: biochemical, mushrooms; conditions: pH 6.8, 37° C., 10 minutes
Experimental: That is, a sample is introduced into a microplate, to which are added a phosphate buffer solution(pH 6.8) and a L-tyrosine solution.
Inhibitory Activity Against Tyrosinase
Enzyme tyrosinase extracted from mushrooms(manufactured by Sigma) was used in the present experiment. First, a substrate L-tyrosine was dissolved in phosphate buffer solution(0.05M, pH 6.8) to a concentration of 1.5 mM and then 0.01 ml of this solution was introduced to a 0.3 ml cuvette in a spectrophotometry. Dopa as a cofacter was prepared as a solution in a concentration of 0.06 mM and 0.01 ml of this dopa solution was added to the substrate solution. To the resulting mixture were added the inhibitor of formula (I) and phosphate buffer solution to a total volume of 0.31 ml. The reaction was started by adding 0.1 ml of an enzyme solution in which tyrosinase was dissolved in phosphate buffer solution in a concentration of 60 U/ml. 0.1 ml of phosphate buffer solution instead of the enzyme solution was added to the blank sample. The reaction was carried out for 10 minutes at 37° C. and then absorbance at 475 nm was measured using Spectrophotometer (Beckman DU-7500).
[formula] in the above formula A represents absorbance at 475 nm when the inhibitor is added, and
B represents absorbance at 475 nm when the inhibitor is not added.

[3] = literature, J. Soc. Cosmet. Chem., 42, 361, 1991; cited from earlier work
[4] = B-16 mouse melanoma cells, 3 days, absorbance at 400 nm

IC50 [2, 4] [µg/mL]	IC50 (inhibitory activity against tyrosinase) (tyrosinase) [µg/mL]	Compound	whitening effect [1]	side effects [3]	IC50 ([2]; Mus musculus) [µg/mL]
2 (≈ 5.37 µM)	0.3 (≈ 0.805 µM)	Cc1c(C)c2c(c(C(O)CCc3ccc(O)cc3O)c1O)CCC(C)(C)O2 (centres unmarked) [Compound 8, 4-[3-hydroxy-3-(6-hydroxy-2,2,7,8-tetramethyl-chroman-5-yl)-propyl]-benzene-1,3-diol]	–	–	–
10 (≈ 31.6 µM)	0.1 (≈ 0.316 µM)	COc1c(C)c(C)c(O)c(CCCc2ccc(O)cc2O)c1C [Compound 6, 4-[3-(2-hydroxy-5-methoxy-3,4,6-trimethyl-phenyl)-propyl]-benzene-1,3-diol]	–	–	–
3 (≈ 8.42 µM)	0.3 (≈ 0.842 µM)	Cc1c(C)c2c(c(CCCc3ccc(O)cc3O)c1O)CCC(C)(C)O2 [Compound 9, 4-[3-(6-hydroxy-2,2,7,8-tetramethyl-chroman-5-yl)-propyl]-benzene-1,3-diol]	–	–	–
5 (≈ 16.5 µM)	1 (≈ 3.31 µM)	Cc1c(C)c(O)c(CCCc2ccc(O)cc2O)c(C)c1O [Compound 2, 4-13-(2,5-dihydroxy-3,4,6-trimethyl-phenyl)-propyll-benzene-1,3-diol]	–	–	–

Second part, the molecule before the results:

Compound	IC50 [2, 4] [µg/mL]	IC50 (inhibitory activity against tyrosinase) (tyrosinase) [µg/mL]	whitening effect [1]	side effects [3]	IC50 ([2]; Mus musculus) [µg/mL]
OC[C@H]1O[C@@H](Oc2ccc(O)cc2)[C@H](O)[C@@H](O)[C@@H]1O [Arbutin, reference compound]	300 (≈ 1100 µM)	–	little whitening effect	–	–
COc1c(C)c(C)c(O)c(C)c1C(O)CCc1ccc(O)cc1O (centres unmarked) [Compound 3, 4-[3-hydroxy-3-(5-hydroxy-2-methoxy-3,4,6-trimethyl-phenyl)-propyl]-benzene-1,3-diol]	40 (≈ 120 µM)	50 (≈ 150 µM)	–	–	–
Oc1ccc(O)cc1 [Hydroquinone, reference compound]	–	0.5 (≈ 4.54 µM)	–	degeneration or lethal mutation of melanin, damage of the cellular function	–
Cc1c(C)c(O)c(C(O)CCc2ccc(O)cc2O)c(C)c1O (centres unmarked) [Compound 1, 4-[3-hydroxy-3-(2,5-dihydroxy-3,4,6-trimethyl-phenyl)-propyl]-benzene-1,3-diol]	10 (≈ 31.4 µM)	0.5 (≈ 1.57 µM)	–	–	–
COc1c(C)c(C)c(O)c(C(O)CCc2ccc(O)cc2O)c1C (centres unmarked) [Compound 5, 4-[3-hydroxy-3-(2-hydroxy-5-methoxy-3,4,6-trimethyl-phenyl)-propyl]-benzene-1,3-diol]	5 (≈ 15 µM)	0.1 (≈ 0.301 µM)	–	–	–
O=c1cc(CO)occ1O [Kojic acid, reference compound]	–	–	–	–	15 (≈ 106 µM)
COc1c(C)c(C)c(O)c(C)c1CCCc1ccc(O)cc1O [Compound 4]	45 (≈ 142 µM)	20 (≈ 63.2 µM)	–	–	–
CCOc1c(C)c(C)c(O)c(C(O)CCc2ccc(O)cc2O)c1C (centres unmarked) [Compound 7]	20 (≈ 57.7 µM)	1.0 (≈ 2.89 µM)	–	–	–
